Reference: patent publication US20040260272A1, “Method and system for intravesicular delivery of therapeutic agents” (priority 2002, published 2004)
Values belong to the compound of their own block, whether it stands above or below them.

Key:
[1] = Immobilization of collagenase in composite foam polymer system; conditions: composite foam (hydrophobic polyurethane scaffold with hydrophilic polyurethane coating)
[2] = In vitro release of Ciprofloxacin from cast hydrophilic polyurethane film in phosphate buffer; format: physicochemical; conditions: core loading 6.0 wt %, 37 C
Method: A cast film of polyurethane containing Ciprofloxacin was made by reacting hydrophilic polyurethane prepolymer (Urepol 1002A obtained from Envirochem) with distilled water. The reacting mixture was spread in a thin film over a glass petri dish. The film was cured overnight and dried to leave a thin film of polyurethane containing Ciprofloxacin. The resultant drug carrying film was further vacuum-dried. The drug loading was measured to be 0.06 gms per 1 gm of coated film, i.e. 6.0 wt %.
The drug carrying film was placed in phosphate buffer at 37 C and a pH of 7.4 and the Ciprofloxacin in vitro release was measured.

[3] = In vitro release of Thio-TEPA from polyurethane-coated polyurethane foam substrate in phosphate buffer; format: physicochemical; conditions: core loading 0.9 wt %, 37 C
Method: A reticulated TDI/polyether based foam (SIF grade obtained from Foamex) was used as a scaffold or substrate. The foam substrate was 4″×4″ (10.2 cm×10.2 cm) square sample with a thickness of ¼″ or 0.635 cm with a volume of 65.5 cm^3 and weighed 1.2 g, giving a density of 0.0183 gms/cc. 2.42 grams of hydrophilic polyurethane prepolymer (Urepol 1002A obtained from Envirochem) and 64 milligrams of Thio-TEPA was diluted in 6 ml of DMF. The foam was dipped into the solution mixture of polyurethane prepolymer, Thio-TEPA and DMF. The Thio-TEPA containing solution mixture of polyurethane prepolymer and DMF was then distributed and spread over the foam substrate. During the spreading and distribution, it was ensured that solution mixture contacted the foam substrate from all sides and coated both the surface and internal pores of the foam substrate.
The foam substrate with coated solution mixture was held overnight below 8° C. The coating was cured by the reaction of the ambient moisture with the available reactive isocyanate in the prepolymer. After the overnight curing, the foam substrate with coated solution mixture was vacuum-dried to remove residual solvents to leave a coating of polyurethane containing Thio-TEPA.
The final weight of the foam substrate and the drug loaded coating was 3.24 gms. Density of the coated foam substrate was 0.0495 gms/cc. The drug loading was 0.009 gms per 1 gm of coated foam substrate, i.e. 0.9 wt %. The drug entrapment efficiency was 50% calculated from a final measures drug loading of 0.9 wt % and a theoretical drug loading of 1.8 wt %. The weight of the drug in the final coated foam substrate was 0.029 gms or 29 mgs with the drug density on the coated foam substrate being 0.44 mgs per cc.
The coated foam substrate was placed in phosphate buffer at 37 C, and a pH of 7.4 and the Thio-TEPA in vitro release was measured.

Compound: collagenase
enzymatic activity after immobilization within the polymer system [1]: retain enzymatic activity

Cumulative Release, % at Day 1 ([2]; pH 7.4, Day 1): 15.7%
Cumulative Release, % at Day 3 ([2]; pH 7.4, Day 3): 16.8%
Cumulative Release, % at Day 4 ([2]; pH 7.4, Day 4): 29.28%
Compound: O=C(O)c1cn(C2CC2)c2cc(N3CCNCC3)c(F)cc2c1=O [Ciprofloxacin]

Compound: S=P(N1CC1)(N1CC1)N1CC1 [Thio-Tepa, Thio-TEPA]
Cumulative Release, % at Day 1 ([3]; pH 7.4, Day 1): 11.9%
Cumulative Release, % at Day 3 ([3]; pH 7.4, Day 3): 43.7%
Cumulative Release, % at Day 6 ([3]; pH 7.4, Day 6): 66.6%
